Data reported in patent EP4786483A1, “AURISTATIN DERIVATIVE AND ANTIBODY-DRUG CONJUGATE THEREOF” (priority 2023, dated 2025).
Read-outs that look alike come from different tables or passages of the source. Non-standard residues stand in square brackets, D forms with d. Residues, ends and D or L forms follow the SMILES beside them. *: point of attachment. Dolaproine = CO[C@@H]([C@@H]1CCCN1)[C@@H](C)C(=O)O; Dil = CC[C@H](C)[C@H](NC)[C@@H](CC(=O)O)OC; Phe(3-NH2) = Nc1cccc(C[C@H](N)C(=O)O)c1; NMe2Val = CC(C)[C@@H](C(=O)*)N(C)C

How the values were obtained:
Assay in all cases: Cytotoxicity test for compounds (CellTiter-Glo cell proliferation inhibition)
Assay type in all cases: cell-based
[1] = tested on: human breast cancer cells MDA-MB-468; details: 3 days of incubation, CellTiter-Glo, read-out: MDA-MD-468/IC50
Protocol: (§1) Biological Test Example 1: Cytotoxicity Test for Compounds
(§2) • 96-well clear flat-bottom white plate (Corning, #3610) • RPMI1640 culture medium (Gibco, #A10491-01) • Fetal Bovine Serum (Sigma-Aldrich, #F8687-500ML) • CellTiter-Glo® Luminescent Cell Viability Assay (Promega, # G7572/G7571)
(§3) Human gastric cancer cells NCI-N87 (ATCC, Cat. No.: CRL-5822), human breast cancer cells MDA-MB-468 (Cell Bank of the Committee for Type Culture Collection of the Chinese Academy of Sciences, Cat. No.: TCHu136), and human breast cancer cells KPL-4 (Nanjing Cobioer Biosciences Co., Ltd., Cat. No.: CBP60379) were washed with PBS and digested with 0.25% Trypsin-EDTA trypsin for about 3-10 min. The digestion was terminated with a complete cell culture medium. The cells were centrifuged at 1000 rpm for 5 min, and the supernatant was discarded. The cells were resuspended in a complete cell culture medium. The cell number was counted using a cell counter, and the cells were adjusted to the desired density. 90.0 µL of the cell suspension was added to each well at 3000 cells/well. The cell plate was incubated in a cell incubator at 37°C with 5% CO2 overnight.
(§4) In the experiment, a DMSO control group and test sample groups were set. The cell plate was removed from the incubator to observe cell adherence. After the cells adhered, 10.00 µL of the sample (starting from a final concentration of 10 µM, 5-fold dilution, 9 concentrations) was added to each well. After the mixture was gently shaken uniformly, the plate was incubated in the incubator.
(§5) After 3 days of incubation, 100.0 µL/well of CellTiter-Glo™ (Promega, Cat. No.: G7572/G7571) working solution was added. The plate was shaken on a thermostatic shaker to lyse the cells. After 10 min, the plate was read on a microplate reader.
(§6) Data analysis: GraphPad Prism 8.0 software was used to plot a graph with the Log value of the sample concentration as the abscissa and the Inhibition% as the ordinate. The data were analyzed by Nonlinear regression (curve fit) to obtain the IC50 value of each test sample. Table 1. Inhibition activity of compounds of the present disclosure on cell proliferation

[2] = tested on: human breast cancer cells KPL-4; details: 3 days of incubation, CellTiter-Glo, read-out: KPL-4/IC50
Protocol: as §1, §2, §3, §4, §5, §6

[3] = tested on: Human gastric cancer cells NCI-N87; details: 3 days of incubation, CellTiter-Glo, read-out: NCI-87/IC50
Protocol: as §1, §2, §3, §4, §5, §6

## C#CC(Cc1cccc(N)c1)OC(=O)[C@H](C)[C@@H](OC)[C@@H]1CCCN1C(=O)C[C@@H](OC)[C@H]([C@@H](C)CC)N(C)C(=O)[C@@H](NC(=O)[C@H](C(C)C)N(C)C)C(C)C (single isomer, unassigned) [Example 21]
[1]; Homo sapiens, MDA-MB-468, 72 h
  IC50: < 0.0256 nM
[2]; Homo sapiens, KPL4, 72 h
  IC50: < 0.0256 nM
[3]; Homo sapiens, NCI-N87, 72 h
  IC50: < 0.0256 nM

## CC[C@H](C)[C@@H]([C@@H](CC(=O)N1CCC[C@H]1[C@H](OC)[C@@H](C)C(=O)OC(/C=C/C(=O)OC)Cc1cccc(N)c1)OC)N(C)C(=O)[C@@H](NC(=O)[C@H](C(C)C)N(C)C)C(C)C (single isomer, unassigned) [Example 28]
[1]; Homo sapiens, MDA-MB-468, 72 h
  IC50: 3.25 nM
[2]; Homo sapiens, KPL4, 72 h
  IC50: < 0.0256 nM
[3]; Homo sapiens, NCI-N87, 72 h
  IC50: 3.33 nM

## CC[C@H](C)[C@@H]([C@@H](CC(=O)N1CCC[C@H]1[C@H](OC)[C@@H](C)C(=O)OC(/C=C/C(=O)OC)Cc1cccc(N)c1)OC)N(C)C(=O)[C@@H](NC(=O)[C@H](C(C)C)N(C)C)C(C)C (single isomer, unassigned) [Example 29]
[1]
  IC50: 3.17 nM
[2]
  IC50: < 0.0256 nM
[3]
  IC50: 3.73 nM

## CC[C@H](C)[C@@H]([C@@H](CC(=O)N1CCC[C@H]1[C@H](OC)[C@@H](C)C(=O)N1CCS[C@H](c2cccc(N)c2)C1)OC)N(C)C(=O)[C@@H](NC(=O)[C@H](C(C)C)N(C)C)C(C)C (single isomer, unassigned) [Example 60-P1]
[1]; Homo sapiens, MDA-MB-468, 72 h
  IC50: 8.02 nM
[2]; Homo sapiens, KPL4, 72 h
  IC50: 5.81 nM
[3]; Homo sapiens, NCI-N87, 72 h
  IC50: 9.63 nM

## CC[C@H](C)[C@@H]([C@@H](CC(=O)N1CCC[C@H]1[C@H](OC)[C@@H](C)C(=O)N1CCSC(c2cccc(N)c2)C1)OC)N(C)C(=O)[C@@H](NC(=O)[C@H](C(C)C)N(C)C)C(C)C (single isomer, unassigned) [Example 60-P2]
[1]; Homo sapiens, MDA-MB-468, 72 h
  IC50: 1.01 nM
[2]; Homo sapiens, KPL4, 72 h
  IC50: 0.6 nM
[3]; Homo sapiens, NCI-N87, 72 h
  IC50: 0.71 nM

## CC[C@H](C)[C@@H]([C@@H](CC(=O)N1CCC[C@H]1[C@H](OC)[C@@H](C)C(=O)N1CCS(=O)(=O)[C@H](c2cccc(N)c2)C1)OC)N(C)C(=O)[C@@H](NC(=O)[C@H](C(C)C)N(C)C)C(C)C (single isomer, unassigned) [Example 61-P1]
[1]; Homo sapiens, MDA-MB-468, 72 h
  IC50: 34.6 nM
[2]; Homo sapiens, KPL4, 72 h
  IC50: 49.5 nM
[3]; Homo sapiens, NCI-N87, 72 h
  IC50: 93.9 nM

## CC[C@H](C)[C@@H]([C@@H](CC(=O)N1CCC[C@H]1[C@H](OC)[C@@H](C)C(=O)N1CCS(=O)(=O)[C@@H](c2cccc(N)c2)C1)OC)N(C)C(=O)[C@@H](NC(=O)[C@H](C(C)C)N(C)C)C(C)C (single isomer, unassigned) [Example 61-P2]
[1]; Homo sapiens, MDA-MB-468, 72 h
  IC50: 13.3 nM
[2]; Homo sapiens, KPL4, 72 h
  IC50: 24.3 nM
[3]; Homo sapiens, NCI-N87, 72 h
  IC50: 56.3 nM

## CC[C@H](C)[C@@H]([C@@H](CC(=O)N1CCC[C@H]1[C@H](OC)[C@@H](C)C(=O)N[C@H](CCl)Cc1cccc(N)c1)OC)N(C)C(=O)[C@@H](NC(=O)[C@H](C(C)C)N(C)C)C(C)C [Example 1, (S)-N-((3R,4S,5S)-1-((S)-2-((1R,2R)-3-(((S)-1-(3-aminophenyl)-3-chloropropan-2-yl)amino)-1-methoxy-2-methyl-3-oxopropyl)pyrrolidin-1-yl)-3-methoxy-5-methyl-1-oxoheptan-4-yl)-2-((S)-2-(dimethylamino)-3-methylbutanamido)-N,3-dimethylbutanamide]
[1]; Homo sapiens, MDA-MB-468, 72 h
  IC50: 0.63 nM
[2]; Homo sapiens, KPL4, 72 h
  IC50: 0.41 nM
[3]; Homo sapiens, NCI-N87, 72 h
  IC50: 0.74 nM

## C#C[C@H](Cc1cccc(N)c1)NC(=O)[C@H](C)[C@@H](OC)[C@@H]1CCCN1C(=O)C[C@@H](OC)[C@H]([C@@H](C)CC)N(C)C(=O)[C@@H](NC(=O)[C@H](C(C)C)N(C)C)C(C)C [Example 2, (S)-N-((3R,4S,5S)-1-((S)-2-((1R,2R)-3-(((S)-1-(3-aminophenyl)-but-3-yn-2-yl)amino)-1-methoxy-2-methyl-3-oxopropyl)pyrrolidin-1-yl)-3-methoxy-5-methyl-1-oxoheptan-4-yl)-2-((S)-2-(dimethylamino)-3-methylbutanamido)-N,3-dimethylbutanamide]
[1]; Homo sapiens, MDA-MB-468, 72 h
  IC50: 0.36 nM
[2]; Homo sapiens, KPL4, 72 h
  IC50: 0.21 nM
[3]; Homo sapiens, NCI-N87, 72 h
  IC50: 0.51 nM

## CC[C@H](C)[C@@H]([C@@H](CC(=O)N1CCC[C@H]1[C@H](OC)[C@@H](C)C(=O)N[C@@H](Cc1cccc(N)c1)C(N)=O)OC)N(C)C(=O)[C@@H](NC(=O)[C@H](C(C)C)N(C)C)C(C)C [Example 3, (S)-N-((3R,4S,5S)-1-((S)-2-((1R,2R)-3-(((S)-1-amino-3-(3-aminophenyl)-1-oxopropan-2-yl)amino)-1-methoxy-2-methyl-3-oxopropyl)pyrrolidin-1-yl)-3-methoxy-5-methyl-1-oxoheptan-4-yl)-2-((S)-2-(dimethylamino)-3-methylbutanamido)-N,3-dimethylbutanamide] (NMe2Val-V[Dil][Dolaproine][Phe(3-NH2)]-NH2)
[1]; Homo sapiens, MDA-MB-468, 72 h
  IC50: 25.1 nM
[2]; Homo sapiens, KPL4, 72 h
  IC50: 18.9 nM
[3]; Homo sapiens, NCI-N87, 72 h
  IC50: 38.4 nM

## CC[C@H](C)[C@@H]([C@@H](CC(=O)N1CCC[C@H]1[C@H](OC)[C@@H](C)C(=O)N[C@@H](Cc1cccc(N)c1)C(=O)NC)OC)N(C)C(=O)[C@@H](NC(=O)[C@H](C(C)C)N(C)C)C(C)C [Example 4, (S)-N-((3R,4S,5S)-1-((S)-2-((1R,2R)-3-(((S)-3-(3-aminophenyl)-1-(methylamino)-1-oxopropan-2-yl)amino)-1-methoxy-2-methyl-3-oxopropyl)pyrrolidin-1-yl)-3-methoxy-5-methyl-1-oxoheptan-4-yl)-2-((S)-2-(dimethylamino)-3-methylbutanamido)-N,3-dimethylbutanamide] (NMe2Val-V[Dil][Dolaproine][Phe(3-NH2)]-NHMe)
[1]; Homo sapiens, MDA-MB-468, 72 h
  IC50: 6.12 nM
[2]; Homo sapiens, KPL4, 72 h
  IC50: 5.26 nM
[3]; Homo sapiens, NCI-N87, 72 h
  IC50: 14.7 nM

## C=CCN(CCc1cccc(N)c1)C(=O)[C@H](C)[C@@H](OC)[C@@H]1CCCN1C(=O)C[C@@H](OC)[C@H]([C@@H](C)CC)N(C)C(=O)[C@@H](NC(=O)[C@H](C(C)C)N(C)C)C(C)C [Example 5, (S)-N-((3R,4S,5S)-1-((S)-2-((1R,2R)-3-(allyl(3-aminophenethyl)amino)-1-methoxy-2-methyl-3-oxopropyl)pyrrolidin-1-yl)-3-methoxy-5-methyl-1-oxoheptan-4-yl)-2-((S)-2-(dimethylamino)-3-methylbutanamido)-N,3-dimethylbutanamide]
[1]; Homo sapiens, MDA-MB-468, 72 h
  IC50: 8.81 nM
[2]; Homo sapiens, KPL4, 72 h
  IC50: 3.56 nM
[3]; Homo sapiens, NCI-N87, 72 h
  IC50: 4.28 nM

## CC[C@H](C)[C@@H]([C@@H](CC(=O)N1CCC[C@H]1[C@H](OC)[C@@H](C)C(=O)N1CCO[C@H](c2cccc(N)c2)C1)OC)N(C)C(=O)[C@@H](NC(=O)[C@H](C(C)C)N(C)C)C(C)C [Example 48, (S)-N-((3R,4S,55)-1-((S)-2-((1R,2R)-3-((R)-2-(3-aminophenyl)morpholino)-1-methoxy-2-methyl-3-oxopropyl)pyrrolidin-1-yl)-3-methoxy-5-methyl-1-oxoheptan-4-yl)-2-((S)-2-(dimethylamino)-3-methylbutanamido)-N,3-dimethylbutanamide]
[2]
  IC50: 2.06 nM
[3]
  IC50: 4.73 nM

## CC[C@H](C)[C@@H]([C@@H](CC(=O)N1CCC[C@H]1[C@H](OC)[C@@H](C)C(=O)N1CCO[C@@H](c2cccc(N)c2)C1)OC)N(C)C(=O)[C@@H](NC(=O)[C@H](C(C)C)N(C)C)C(C)C [Example 51, (S)-N-((3R,4S,SS)-1-((S)-2-((1R,2R)-3-((S)-2-(3-aminophenyl)morpholino)-1-methoxy-2-methyl-3-oxopropyl)pyrrolidin-1-yl)-3-methoxy-5-methyl-1-oxoheptan-4-yl)-2-((S)-2-(dimethylamino)-3-methylbutanamido)-N,3-dimethylbutanamide]
[2]
  IC50: 6.03 nM
[3]
  IC50: 16.1 nM
